Assay results taken from PubChem BioAssay AID1996.
In brackets after ≈: the same amount, converted by molar mass.

Details: buffer; pH 7.4; 200.0 µM

| solubility kinetic [µg/mL] | SMILES |
| --- | --- |
| < 0.3 | Cc1ccc(NC(=O)CC(=O)Nc2ccc(C)c(C)c2)cc1C |
| > 56 | CCc1cc(=O)oc2c(C)c(OC(C)C(=O)N3CCC[C@@H]3C(=O)O)ccc12 (stereo not given in full) |
| 17.7 (≈ 58.1 µM) | COc1ccc(NC(=O)O/N=C/c2ccccc2Cl)cc1 |
| > 48.7 | CC(C)Cc1nnc(NC(=O)CCC(=O)N2CCCCC2)s1 |
| 52.3 (≈ 138 µM) | O=C(O)c1cc(S(=O)(=O)N2CC3CC3C2C(=O)O)c(Cl)cc1Cl (stereo not given) |
| 5.6 (≈ 17 µM) | Cc1cccc2sc(NC(=O)CCNC(=O)c3ccco3)nc12 |
| 4.2 (≈ 14.8 µM) | CCc1nc2oc3ccccc3c(=O)c2cc1C(=O)OC |
| > 48.1 | CN(C)CCCN1c2ccccc2Sc2ccccc21.Cl |
| > 52.9 | CC1=C(C(=O)O)N2C(=O)C(NC(=O)c3ccccc3Cl)C2SC1 (stereo not given) |
| 43.8 (≈ 129 µM) | O=C(c1ccco1)N1CCC(N2CCN(c3ccccc3)CC2)CC1 |
| > 48.3 | O=C1Nc2ccc(Br)cc2C1(O)c1ccc(F)cc1 (stereo not given) |
| 32.8 (≈ 100 µM) | COc1ccccc1NC(=O)CSc1nc(SC)ns1 |
| > 40.7 | CC(C)N1CC(C(=O)Nc2ccc(C#N)cc2)CC1=O (stereo not given) |
| 38.7 (≈ 111 µM) | C=C(C)[C@@H]1CC=C(CN2CCC(CCOC)(C(=O)OCC)CC2)CC1 |
| 2.2 (≈ 6.56 µM) | Cc1cc(C(=O)Nc2ccc(S(=O)(=O)N3CCCC3)cc2)no1 |
| 1.4 (≈ 4.76 µM) | COc1cc(SC)ccc1C(=O)Nc1ncc(C)s1 |
| < 0.8 | CCOCCOc1cccc(C(=O)NC(c2ccccc2)c2ccccc2)c1 |
| > 51.7 | COC(=O)C(Cc1ccccc1)NC(=O)CCNC(=O)c1ccco1 (stereo not given) |
| 39.3 (≈ 146 µM) | CCC(C(=O)Nc1cc(C)cc(C)n1)c1ccccc1 (stereo not given) |
| 51.6 (≈ 129 µM) | O=C(Cn1c(=O)cnc2ccccc21)Nc1cc(Cl)ccc1N1CCOCC1 |
| 31.8 (≈ 112 µM) | Cn1cc(C(=O)C(=O)NC2CCCCC2)c2ccccc21 |
| > 37.4 | Cc1cc(N)ccc1NC(=O)CN1CCOCC1 |
| > 71.7 | O=C(COC(=O)CCC(=O)N1CCOCC1)Nc1ccc(Br)cc1Br |
| 6.5 (≈ 22.9 µM) | C=CCOc1ccc(C=Nc2ccc(OC)cc2)c(O)c1 |
| > 41.8 | CCN(C(=O)CSc1ccccn1)C1CCCCC1 |
| < 0.6 | O=C1Nc2ccccc2S/C1=C/c1cccs1 |
| < 0.2 | Cc1nc(C)c(-c2csc(Nc3ccc(O)cc3C)n2)s1 |

| solubility kinetic [µg/mL] | SMILES |
| --- | --- |
| > 50.6 | COc1ccc(-c2ccc(CCC(=O)O)n2-c2ccccc2O)cc1 |
| 32.6 (≈ 142 µM) | CC(=O)Nc1cc(Br)ccc1O |
| 10.9 (≈ 38.5 µM) | Cc1ccnc(NC(=O)Cn2c(=O)oc3ccccc32)c1 |
| > 34.8 | Cn1c(=O)c2ccccc2n2c(=S)[nH]nc12 |
| > 59.9 | Cc1[nH]c(SCC(=O)c2c(N)n(C)c(=O)n(C)c2=O)nc1Cc1ccccc1 |
| > 45.4 | O=C(CSc1cccc[n+]1[O-])NCCCc1ccccc1 |
| 23.5 (≈ 116 µM) | Cc1ccccc1NC(=O)c1ccno1 |
| 38.4 (≈ 137 µM) | COc1ccc2c(c1)c(C(=O)O)c(C)n2-c1ccccc1 |
| > 45.8 | COc1cccc2c1CCc1c-2nc2ccccc2c1C(=O)O |
| < 0.2 | C=CCN=C1S/C(=C/c2ccc([N+](=O)[O-])cc2)C(=O)N1CC=C |
| 30.8 (≈ 88.1 µM) | CN1CCN(C(=S)c2cn(Cc3ccccc3)c3ccccc23)CC1 |
| 9.6 (≈ 29.3 µM) | C=CCN(Cc1cccc(OC)c1OC)C(=O)Oc1ccccc1 |
| 16.7 (≈ 50.4 µM) | CCc1nc2sc3c(=O)[nH]cnc3c2c2c1CSC(C)(C)C2 |
| > 51.7 | CCOC(=O)Cn1cc(C(=O)C(=O)N2CCOCC2)c2ccccc21 |
| 23.2 (≈ 77.7 µM) | O=C(NCCc1c[nH]c2ccccc12)c1ccccc1Cl |
| 43.1 (≈ 132 µM) | CC1(C)Cc2ccccc2C(CSc2ccccc2C(=O)O)=N1 |
| 51.8 (≈ 142 µM) | C/C(=C\c1ccccc1)C(=O)N1CCN(Cc2ccc3c(c2)OCO3)CC1 |
| > 33.5 | O=C(O)c1cc(=O)[nH]c2c(Cl)cccc12 |
| 29.5 (≈ 123 µM) | O=C(CC(=O)c1ccccc1)Nc1ccccc1 |
| > 34.1 | CC1(C)Cc2ccccc2C(/C(C#N)=N/O)=N1 |
| > 45.3 | COc1cccc(OCC(O)CNC2CCCC2)c1.Cl (stereo not given) |
| 10.5 (≈ 33.7 µM) | COc1ccc(CCCC(=O)NCCc2ccccc2)c(C)c1 |
| 1.8 (≈ 5.84 µM) | COc1ccc2[nH]c(=O)c(CNc3cc(C)ccc3C)cc2c1 |
| > 53.2 | O=C(Nc1ccc(S(=O)(=O)Nc2ncccn2)cc1)c1ccccc1 |
| 17.9 (≈ 66 µM) | O=C1C2C3C=CC(CC3)C2C(=O)N1c1ccc(F)cc1 (stereo not given) |
| > 35.3 | CC(C)C(=O)NC(CC(=O)O)c1ccccc1 (stereo not given) |
| > 42.3 | Fc1ccc(NC(=S)Nc2cccnc2)cc1Cl |

More lines, now with the values behind:

| SMILES | solubility kinetic [µg/mL] |
| --- | --- |
| COc1cc(C(=O)N[C@H](C(=O)OCC(=O)NC2CCCCCC2)C(C)C)cc(OC)c1OC | > 69.7 |
| CC(C)c1ccc(NC(=O)/C(C#N)=C/c2ccncc2)cc1 | 4.6 (≈ 15.8 µM) |
| Nc1nc2ccccc2cc1-c1cccs1 | 27.7 (≈ 122 µM) |
| COc1ccccc1OC(C)C(=O)Nc1ccc2c(c1)OCCO2 (stereo not given) | > 49.4 |
| O=C(O)CC(CC(=O)Nc1ccccc1C(=O)O)c1ccccc1 (stereo not given) | > 49.1 |
| COC(=O)/C(C#N)=C/c1c(Oc2cc(C)cc(C)c2)nc2ccccn2c1=O | 1.7 (≈ 4.53 µM) |
| COc1ccc(C(C)C)cc1S(=O)(=O)NC1CCCC1 | 3 (≈ 10.1 µM) |
| Cc1ccc(C)c(S(=O)(=O)NCCCN2CCOCC2)c1 | > 46.9 |
| O=C(CCc1nc2ccccc2s1)N1CCN(c2ccccc2)CC1 | > 52.7 |
| O=[N+]([O-])c1ccccc1OCCN1CCCC1 | 25.5 (≈ 108 µM) |
| CC1(c2cccc(Br)c2)NC(=O)N(CC(=O)Nc2ccc3c(c2)OCCO3)C1=O (stereo not given) | 67.3 (≈ 146 µM) |
| Cc1ccccc1NC(=O)CN1CCN(Cc2ccccc2)CC1 | 44.3 (≈ 137 µM) |
| CC(=O)c1c[nH]c(C(=O)NC2CCCCCC2)c1 | 34.9 (≈ 141 µM) |
| CN(Cc1ccccc1)C(=S)NC(=O)c1cccs1 | > 43.6 |
| CCOc1ccc(S(=O)(=O)Nc2cc(NS(=O)(=O)c3ccc(OCC)cc3)cc(C(=O)O)c2)cc1 | > 78.1 |
| Cl.OC(CNCc1ccncc1)c1ccccc1 (stereo not given) | > 39.7 |
| CCC1(C)Cc2nc(Cl)c(C#N)cc2CO1 (stereo not given) | 34.2 (≈ 144 µM) |
| Cl.NCCCCNCCCN | 16.4 |
| CC(=O)c1cc(F)ccc1OCC(=O)N1CCCc2ccccc21 | 44.1 (≈ 135 µM) |
| CCN(C(=S)Nc1cccnc1)c1ccccc1 | 36.3 (≈ 141 µM) |
| C/C=C/C(=O)N1c2ccc(C)cc2C(C)=CC1(C)C | 1.2 (≈ 4.7 µM) |
| O=C(O)C(=O)O.OC(CN1CCCC1)Cn1ccc2ccccc21 (stereo not given) | > 50.2 |

| SMILES | solubility kinetic [µg/mL] |
| --- | --- |
| O=C(O)CNC(=S)N(Cc1ccccc1Cl)C1CCCCC1 | 49.1 (≈ 144 µM) |
| O=C(Nc1ccccc1-c1ccccc1)C1CCCC1 | 32.4 (≈ 122 µM) |
| Cc1ccccc1C(=O)c1cccn1CC(=O)N1CCCCC1 | > 46.6 |
| Cc1cc(C(=O)CSc2nc(N)cc(=O)[nH]2)ccc1F | 32.5 (≈ 111 µM) |
| CC(=O)C1=C(C)NC(=O)CC1c1ccc(F)cc1 (stereo not given) | > 37.1 |
| COc1ccc(C(=O)c2oc3ccc(OC)cc3c2NC(C)=O)cc1 | < 0.7 |
| CCCc1cc(NCc2ccccn2)n2c(nc3ccccc32)c1C#N | < 0.1 |
| Cc1ccsc1C(=O)OCC(=O)Nc1nnc(-c2ccccc2)o1 | > 51.5 |
| O=C(O)CC1(CC(=O)Nc2ccccc2N2CCOCC2)CCCC1 | > 52 |
| C/C(=C/C#N)Nc1ccc(C)cc1 | > 25.8 |
| O=C(c1ccccc1F)N1CCCC(C(=O)N2CCc3ccccc3C2)C1 (stereo not given) | 51.3 (≈ 140 µM) |
| CC(=O)N1CCN(C(=O)CNC(=O)c2ccc(C)s2)CC1 | > 46.4 |
| Cc1ccc(N2C(=O)CC(=O)NC2=O)c(C)c1 | > 34.8 |
| CC1CN(Cc2cc(=O)oc3cc(O)c(Cl)cc23)CC(C)O1 (stereo not given) | 41 (≈ 127 µM) |
| CCOC(=O)c1csc(N)c1-c1ccc([N+](=O)[O-])cc1 | 5.5 (≈ 18.8 µM) |
| Cc1cc(C(C)(C)C)cc(C)c1S(=O)(=O)N1CC(=O)Nc2ccccc21 | 5.7 (≈ 15.3 µM) |
| NS(=O)(=O)c1ccc(NC(=O)c2ccc(S(=O)(=O)N3CCCCCC3)cc2)cc1 | 6.3 (≈ 14.4 µM) |
| Cc1cccc(N=C2NC(=O)/C(=C/c3cccnc3)S2)c1 | 2.7 (≈ 9.14 µM) |
| COc1ccccc1NC(=O)c1ccc(NC(=O)C2CC2C)cc1 (stereo not given) | 10.3 (≈ 31.8 µM) |
| O=[N+]([O-])c1cc(O)c(O)c([N+](=O)[O-])c1 | > 30 |
| Cc1ccc(S(=O)(=O)CC(=O)Nc2cc(C)on2)cc1 | 37.6 (≈ 128 µM) |
| Cc1nc2ccc(NC(=O)c3cccs3)cc2s1 | 8.4 (≈ 30.6 µM) |

| SMILES | solubility kinetic [µg/mL] |
| --- | --- |
| O=[N+]([O-])c1ccc(O)c(CN2CCCCCC2)c1 | > 37.5 |
| CCc1ccc(NC(=O)CCCN2C(=S)NC(C)(C)CC2C)cc1 (stereo not given) | 38.7 (≈ 111 µM) |
| Cl.NC1(C(=O)O)CC1 | > 20.6 |
| O=[N+]([O-])c1ccc(N2CCCCC2)nc1 | 29.2 (≈ 141 µM) |
| Cc1ccc(NS(=O)(=O)c2ccc(C(=O)NCc3ccc(S(N)(=O)=O)cc3)cc2)cc1 | 51.7 (≈ 113 µM) |
| O=[N+]([O-])c1cccc(S(=O)(=O)c2cccc([N+](=O)[O-])c2)c1 | 0.4 (≈ 1.3 µM) |
| FC(F)(F)c1cccc(-n2cc(-c3ccccc3)[nH]c2=S)c1 | < 0.3 |
| COC(=O)c1scc(S(=O)(=O)c2ccccc2)c1N | 1.9 (≈ 6.39 µM) |
| COc1cccc(NC(=S)N(C)C2CCN(C)CC2)c1 | > 44 |
| O=C(O)/C=C\C(=O)Nc1ccc(OC(F)F)cc1 | 35.5 (≈ 138 µM) |
| O=C(NCCc1ccc(Cl)cc1)C1CCCO1 (stereo not given) | > 38.1 |
| Cc1ccc(S(=O)(=O)N2CCCCC2)cc1NC(=O)Cc1cccs1 | 20.6 (≈ 54.4 µM) |
| CCN1CCN(CC(c2ccccc2)c2ccccc2)CC1 | 29.1 (≈ 98.8 µM) |
| Cn1c(-c2ccccc2)c(C=O)c2ccccc21 | 19.5 (≈ 82.9 µM) |
| CCCCN(C/C=C/c1ccccc1OC)Cc1ccccc1 | 3.5 (≈ 11.3 µM) |
| CC(=O)N(c1ccc(C)cc1)c1nc(C)cc(C)c1C#N | > 41.9 |
| CC1CCC(NS(=O)(=O)c2cccc3nsnc23)CC1 (stereo not given) | > 46.7 |
| Cl.O=C(CNCc1ccccc1)NC1C2CC3CC(C2)CC1C3 (stereo not given) | 50.2 |
| CCC1Oc2ccccc2N(CC(=O)NC2CC2)C1=O (stereo not given) | > 41.1 |
| N#C/C(=C\c1ccccc1O)C(=O)Nc1cccnc1 | 2.6 (≈ 9.8 µM) |
| CC(=NCCc1ccccc1)C1=C(O)C(c2ccccc2)OC1=O (stereo not given) | 31.7 (≈ 98.6 µM) |
| O=[N+]([O-])c1ccc(-c2cn(-c3ccccc3F)c(=S)[nH]2)cc1 | 0.6 (≈ 1.9 µM) |
